According to the supplement of paper PMC10307832:

Assays:
Test in all cases: relative viability (nuclei count vs DMSO), 5 days (fraction); higher = more cells survive
[1] = compound: CN(c1ncccc1CNc1nc(Nc2ccc3c(c2)CC(=O)N3)ncc1C(F)(F)F)S(C)(=O)=O + CS(=O)(=O)CCNCc1ccc(-c2ccc3ncnc(Nc4ccc(OCc5cccc(F)c5)c(Cl)c4)c3c2)o1 [Lapatinib] (partner 2 µM)
How it was run: (§1)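 Lung cancer cell lines in 1536-well plates got either a single drug or a fixed anchor-drug dose together with five library-drug doses (not always all listed) in √10 steps, by pin tool, on the day after seeding. Nuclei were counted after 5 days, and relative viability is the treated-to-vehicle ratio of nuclei counts. Values are medians of duplicate plates.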

[2] = compound: CN(c1ncccc1CNc1nc(Nc2ccc3c(c2)CC(=O)N3)ncc1C(F)(F)F)S(C)(=O)=O + CC(C)C[C@H](NC(=O)[C@H](Cc1ccccc1)NC(=O)c1cnccn1)B(O)O [Bortezomib] (partner 0.002 µM)
How it was run: as §1

[3] = compound: CN(c1ncccc1CNc1nc(Nc2ccc3c(c2)CC(=O)N3)ncc1C(F)(F)F)S(C)(=O)=O + Nc1ncn([C@H]2C[C@H](O)[C@@H](CO)O2)c(=O)n1 [Decitabine] (partner 2 µM)
How it was run: as §1

[4] = compound: CN(c1ncccc1CNc1nc(Nc2ccc3c(c2)CC(=O)N3)ncc1C(F)(F)F)S(C)(=O)=O + NC(=O)Nc1cc(-c2cccc(F)c2)sc1C(=O)N[C@H]1CCCNC1 [AZD7762] (partner 0.2 µM)
How it was run: as §1

Row | Cell Line | relative viability ([1]; first compound 0.01 µM) | relative viability ([1]; first compound 0.03162 µM) | relative viability ([1]; first compound 0.1 µM) | relative viability ([1]; first compound 0.3162 µM) | relative viability ([1]; first compound 1 µM) | relative viability ([2]; first compound 0.01 µM) | relative viability ([2]; first compound 0.03162 µM) | relative viability ([2]; first compound 0.1 µM) | relative viability ([2]; first compound 0.3162 µM) | relative viability ([2]; first compound 1 µM) | relative viability ([3]; first compound 0.01 µM) | relative viability ([3]; first compound 0.03162 µM) | relative viability ([3]; first compound 0.1 µM) | relative viability ([3]; first compound 0.3162 µM) | relative viability ([3]; first compound 1 µM) | relative viability ([4]; first compound 0.01 µM) | relative viability ([4]; first compound 0.03162 µM) | relative viability ([4]; first compound 0.1 µM) | relative viability ([4]; first compound 0.3162 µM) | relative viability ([4]; first compound 1 µM)
1 | NCI-H2085 | 0.777 | 0.81 | 0.797 | 0.696 | 0.662 | 1.06 | 1.11 | 1.04 | 1 | 0.949 | 0.545 | 0.577 | 0.547 | 0.548 | 0.522 | 1 | 1.02 | 1.02 | 1.07 | 1.03
2 | NCI-H2087 | 1.44 | 1.12 | 0.876 | 0.927 | 0.893 | 1.13 | 0.699 | 0.882 | 0.807 | 0.768 | 0.312 | 0.255 | 0.256 | 0.36 | 0.299 | 1.28 | 1.3 | 1.32 | 1.35 | 1.2
3 | NCI-H2126 | 0.732 | 0.732 | 0.713 | 0.774 | 0.721 | 1.12 | 1.1 | 1.04 | 1.1 | 1.1 | 0.623 | 0.615 | 0.564 | 0.557 | 0.53 | 1.03 | 1.08 | 0.961 | 0.904 | 0.902
4 | NCI-H2347 | 1.04 | 1.01 | 0.88 | 0.863 | 0.833 | 1.08 | 0.93 | 0.927 | 0.801 | 0.45 | 0.655 | 0.598 | 0.587 | 0.593 | 0.57 | 0.818 | 0.654 | 0.782 | 0.733 | 0.685
